Tests used:
[1] = tested on: db/db mice (type 2 diabetic model animals); experiment: Intraperitoneal glucose tolerance test (IPGTT) 28 days after intraperitoneal administration; format: in vivo; settings: 10 mg/kg i.p. for 28 days; for blood glucose level after injection of glucose (IPGTT): fasted 16 hours; for course of blood glucose level in IPGTT: versus control group
Method: An intraperitoneal glucose tolerance test (IPGTT) in the animal model of sodium lobarate was performed in the following manner.
To 7-week-old male db/db mice (type 2 diabetic model animals, C57/BLKS/J-db/db, the Korea Research Institute of Bioscience and Biotechnology), physiological saline for a control group and 10 mg/kg of sodium lobarate for a test group was injected, respectively, intraperitoneally every day for 28 days. Then, the animals were fasted for 16 hours without administering physiological saline or sodium lobarate, after which glucose (500 mg/Ml; injection volume of […]) was injected intraperitoneally into the animals. 0, 15, 30, 60, 90 and 120 min after injection of glucose, blood was sampled from the tail vein, and the changes in the blood glucose levels of the samples were measured. […]
(§1) To 7-week-old male db/db mice (type 2 diabetic model animals, C57/BLKS/J-db/db, the Korea Research Institute of Bioscience and Biotechnology), 20% DMSO for a control group and 10 mg/kg of Lobarin for a test group was injected, respectively, intraperitoneally every day for 28 days. Then, the animals were fasted for 16 hours without administering 20% DMSO or Lobarin for each group, after which glucose (500 mg/Ml; injection volume of 200 μl) was injected intraperitoneally into the animals. 0, 15, 30, 60, 90 and 120 min after injection of glucose, blood was sampled from the tail vein, and the changes in the blood glucose levels of the samples were measured.
as §1, with “Lobarstin” for “Lobarin”, “physiological saline and Lobarstin,” for “20% DMSO or Lobarin for each group,”

[2] = tested on: db/db mice (type 2 diabetic model animals); experiment: Blood glucose level following 6 hours of fasting after intraperitoneal administration; format: in vivo; settings: 10 mg/kg intraperitoneally daily; for increase in the fasting blood glucose level compared with control group: days 0-21, 6 hours of fasting; for average blood glucose level after 6 hours of fasting: db/db mice
Method: (§2) In order to more accurately measure the antidiabetic effect of sodium lobarate, 200 μl of PBS for a control group and 10 mg/kg of sodium lobarate (PTP-1b activity inhibitory compound) for a test group was administered, respectively, intraperitoneally daily to 7-week-old male db/db mice (type 2 diabetic model animals, C57/BLKS/J-db/db, the Korea Research Institute of Bioscience and Biotechnology), and the blood glucose levels of the animals were measured twice a week. Herein, measurement of the blood glucose level was performed after 6 hours of fasting after intraperitoneal injection of sodium lobarate.
as §2, with “effect of Lobarin, 200 μl” for “effect of sodium lobarate, 200 μl”, “mg/kg of Lobarin for a” for “mg/kg of sodium lobarate (PTP-1b activity inhibitory compound) for a”, “blood glucose levels was performed” for “blood glucose level was performed”, “injection of Lobarin.” for “injection of sodium lobarate.”
In order to more accurately measure the antidiabetic effect of Lobarstin, 200 μl of PBS for a control group and 10 mg/kg of Lobarstin for a test group was administered intraperitoneally daily to 7-week-old male db/db mice (type 2 diabetic model animals, C57/BLKS/J-db/db, the Korea Research Institute of Bioscience and Biotechnology), and the blood glucose levels of the animals were measured twice a week. Herein, measurement of the blood glucose levels was performed after 6 hours of fasting after intraperitoneal injection of Lobarstin.

Compound	blood glucose level after injection of glucose (IPGTT) ([1]; 0 min) [mg/dL]	course of blood glucose level in IPGTT [1]	blood glucose level after injection of glucose (IPGTT) ([1]; 15 min) [mg/dL]	blood glucose level after injection of glucose (IPGTT) ([1]; 30 min) [mg/dL]	blood glucose level after injection of glucose (IPGTT) ([1]; 60 min) [mg/dL]	blood glucose level after injection of glucose (IPGTT) ([1]; 90 min) [mg/dL]	blood glucose level after injection of glucose (IPGTT) ([1]; 120 min) [mg/dL]	increase in the fasting blood glucose level compared with control group [2]	average blood glucose level after 6 hours of fasting ([2]; day 0) [mg/dL]	average blood glucose level after 6 hours of fasting ([2]; day 3) [mg/dL]	average blood glucose level after 6 hours of fasting ([2]; day 7) [mg/dL]	average blood glucose level after 6 hours of fasting ([2]; day 10) [mg/dL]	average blood glucose level after 6 hours of fasting ([2]; day 14) [mg/dL]	average blood glucose level after 6 hours of fasting ([2]; day 17) [mg/dL]	average blood glucose level after 6 hours of fasting ([2]; day 21) [mg/dL]
CCCCCc1c(Oc2cc(OC)cc3c2C(=O)OC3(O)CCCC)c(O)cc(O)c1C(=O)O (stereo not drawn) [Lobarin]	153	a low increase and a fast decrease in the blood glucose level	358	436	390	335	290	less than that in the control group	152	141	155	198	261	287	340
CCCCCc1c2c(cc(O)c1C(=O)[O-])OC(=O)c1c(cc(OC)cc1C(=O)CCCC)O2.[Na+] [sodium lobarate]	153	a low increase and a fast decrease in the blood glucose level	291	361	385	335	290	less than that in the control group	141	142	185	206	232	236	313
CCC/C=C1/OC(=O)c2c(Oc3c(O)cc(O)c(C(=O)O)c3CCCCC)cc(OC)cc21 [Lobarstin]	152	a low increase and a fast decrease in the blood glucose level	229	307	205	162	147	less than that in the control group	134		182		162		204
